Target mRNA knockdown data for 20 substances are collected here from the OligoGym collection.

HELM strings list units from the 5' end as sugar, base in round brackets, then linkage (d deoxyribose, r ribose, m 2'-O-methyl, p phosphodiester). Strings are as the collection lists them, not checked against the first reports. ss, as = sense and antisense strand; [s4r] = 4'-thioribose; [fl2r] = 2'-fluoro
Note: test system not given here.

The conditions of the data set: siRNA.
In turn, “RNA1{r(A)p.r(A)p.m(C)p.r(U)p.m(C)p.r(U)p.r(A)p.m(C)p.r(U)p.r(G)p.r(U)p.r(G)p.r(G)p.r(A)p.r(G)p.r(U)p.m(C)p.r(G)p.r(G)p.r(T)p.r(T)}|RNA2{m(C)p.m(C)p.r(G)p.r(A)p.m(C)p.r(U)p.m(C)p.m(C)p.r(A)p.m(C)p.r(A)p.r(G)p.r(U)p.r(A)p.r(G)p.r(A)p.r(G)p.r(U)p.r(U)p.r(T)p.r(T)}$$$RNA1{StrandType:ss}|RNA2{StrandType:as}$” registered a target mRNA knockdown of 57%.
In turn, “RNA1{r(A)p.r(A)p.m(U)p.r(A)p.r(A)p.r(G)p.m(C)p.r(A)p.r(G)p.r(C)p.r(U)p.r(C)p.r(G)p.m(C)p.r(G)p.r(C)p.r(U)p.r(C)p.r(C)p.r(T)p.r(T)}|RNA2{r(G)p.r(G)p.r(A)p.r(G)p.r(C)p.r(G)p.r(C)p.r(G)p.r(A)p.r(G)p.r(C)p.m(U)p.r(G)p.r(C)p.r(U)p.m(U)p.r(A)p.r(U)p.r(U)p.r(T)p.r(T)}$$$RNA1{StrandType:ss}|RNA2{StrandType:as}$” gave a target mRNA knockdown of 51%.
Substance “RNA1{r(A)p.r(A)p.m(U)p.r(A)p.r(A)p.r(G)p.m(C)p.r(A)p.r(G)p.r(C)p.r(U)p.r(C)p.r(G)p.r(C)p.r(G)p.r(C)p.r(U)p.r(C)p.r(C)p.r(T)p.r(T)}|RNA2{r(G)p.r(G)p.r(A)p.r(G)p.r(C)p.r(G)p.r(C)p.r(G)p.r(A)p.r(G)p.r(C)p.m(U)p.r(G)p.r(C)p.m(U)p.r(U)p.r(A)p.r(U)p.r(U)p.r(T)p.r(T)}$$$RNA1{StrandType:ss}|RNA2{StrandType:as}$” displayed a target mRNA knockdown of 68%.
For the substance “RNA1{r(A)p.r(A)p.m(U)p.r(A)p.r(A)p.r(G)p.m(C)p.r(A)p.r(G)p.r(C)p.r(U)p.r(C)p.r(G)p.r(C)p.r(G)p.r(C)p.r(U)p.r(C)p.r(C)p.r(T)p.r(T)}|RNA2{r(G)p.r(G)p.r(A)p.r(G)p.r(C)p.r(G)p.r(C)p.r(G)p.r(A)p.r(G)p.r(C)p.r(U)p.r(G)p.r(C)p.r(U)p.m(U)p.r(A)p.r(U)p.r(U)p.r(T)p.r(T)}$$$RNA1{StrandType:ss}|RNA2{StrandType:as}$”, the target mRNA knockdown was determined as 54%.
The value for “RNA1{r(A)p.r(A)p.m(U)p.r(A)p.r(A)p.r(G)p.r(C)p.r(A)p.r(G)p.r(C)p.r(U)p.r(C)p.r(G)p.r(C)p.r(G)p.r(C)p.r(U)p.r(C)p.r(C)p.r(T)p.r(T)}|RNA2{r(G)p.r(G)p.r(A)p.r(G)p.r(C)p.r(G)p.r(C)p.r(G)p.r(A)p.r(G)p.r(C)p.r(U)p.r(G)p.r(C)p.r(U)p.m(U)p.r(A)p.r(U)p.r(U)p.r(T)p.r(T)}$$$RNA1{StrandType:ss}|RNA2{StrandType:as}$” was 69%.
As to “RNA1{r(A)p.r(A)p.r(A)p.r(C)p.[fl2r](C)p.[fl2r](A)p.r(G)p.r(G)p.[fl2r](A)p.r(A)p.r(G)p.[fl2r](G)p.r(G)p.r(G)p.r(A)p.r(A)p.r(A)p.r(U)p.r(C)p.r(T)p.r(T)}|RNA2{r(G)p.r(A)p.r(U)p.r(U)p.r(U)p.r(C)p.r(C)p.r(C)p.r(C)p.r(U)p.r(U)p.r(C)p.r(C)p.[fl2r](U)p.[fl2r](G)p.r(G)p.r(U)p.r(U)p.r(U)p.r(T)p.r(T)}$$$RNA1{StrandType:ss}|RNA2{StrandType:as}$”, the target mRNA knockdown came out at 61%.
Substance “RNA1{r(A)p.r(A)p.r(A)p.r(C)p.[fl2r](C)p.[fl2r](A)p.r(G)p.r(G)p.r(A)p.r(A)p.r(G)p.r(G)p.r(G)p.r(G)p.r(A)p.r(A)p.r(A)p.r(U)p.r(C)p.r(T)p.r(T)}|RNA2{r(G)p.r(A)p.r(U)p.r(U)p.r(U)p.r(C)p.r(C)p.r(C)p.r(C)p.r(U)p.r(U)p.r(C)p.r(C)p.r(U)p.r(G)p.r(G)p.r(U)p.r(U)p.r(U)p.r(T)p.r(T)}$$$RNA1{StrandType:ss}|RNA2{StrandType:as}$” had a target mRNA knockdown of 64%.
On to “RNA1{r(A)p.r(A)p.r(A)p.r(C)p.m(C)p.r(U)p.m(C)p.r(A)p.r(G)p.r(C)p.r(C)p.r(C)p.m(U)p.r(A)p.r(A)p.r(C)p.r(G)p.r(G)p.r(U)p.r(T)p.r(T)}|RNA2{r(A)p.r(C)p.r(C)p.r(G)p.r(U)p.m(U)p.r(A)p.r(G)p.r(G)p.r(G)p.r(C)p.m(U)p.r(G)p.r(A)p.r(G)p.r(G)p.r(U)p.r(U)p.r(U)p.r(T)p.r(T)}$$$RNA1{StrandType:ss}|RNA2{StrandType:as}$”, for which the target mRNA knockdown came to 79%.
“RNA1{r(A)p.r(A)p.r(A)p.r(C)p.r(A)p.r(U)p.r(G)p.r(C)p.r(A)p.r(G)p.r(A)p.r(A)p.r(A)p.r(A)p.r(U)p.r(G)p.r(C)p.r(U)p.r(G)p.r(T)p.r(T)}|RNA2{[s4r](C)p.[s4r](A)p.r(G)p.r(C)p.r(A)p.r(U)p.r(U)p.r(U)p.r(U)p.r(C)p.r(U)p.r(G)p.r(C)p.r(A)p.r(U)p.r(G)p.r(U)p.[s4r](U)p.[s4r](U)p.r(T)p.r(T)}$$$RNA1{StrandType:ss}|RNA2{StrandType:as}$”: the target mRNA knockdown was determined as 42.5%.
Consider “RNA1{r(A)p.r(A)p.r(A)p.r(C)p.r(A)p.r(U)p.r(G)p.r(C)p.r(A)p.r(G)p.r(A)p.r(A)p.r(A)p.r(A)p.r(U)p.r(G)p.r(C)p.r(U)p.r(G)p.r(T)p.r(T)}|RNA2{r(C)p.r(A)p.r(G)p.r(C)p.r(A)p.r(U)p.r(U)p.r(U)p.r(U)p.r(C)p.r(U)p.r(G)p.r(C)p.r(A)p.r(U)p.[s4r](G)p.[s4r](U)p.[s4r](U)p.[s4r](U)p.r(T)p.r(T)}$$$RNA1{StrandType:ss}|RNA2{StrandType:as}$”, for which the target mRNA knockdown amounted to 52.7%.
With “RNA1{r(A)p.r(A)p.r(A)p.r(C)p.r(A)p.r(U)p.r(G)p.r(C)p.r(A)p.r(G)p.r(A)p.r(A)p.r(A)p.r(A)p.r(U)p.r(G)p.r(C)p.r(U)p.r(G)p.r(T)p.r(T)}|RNA2{r(C)p.r(A)p.r(G)p.r(C)p.r(A)p.r(U)p.r(U)p.r(U)p.r(U)p.r(C)p.r(U)p.r(G)p.r(C)p.r(A)p.r(U)p.r(G)p.r(U)p.[s4r](U)p.[s4r](U)p.r(T)p.r(T)}$$$RNA1{StrandType:ss}|RNA2{StrandType:as}$”, the target mRNA knockdown turned out to be 57.2%.
Substance “RNA1{r(A)p.r(A)p.r(A)p.r(C)p.r(C)p.r(C)p.r(C)p.[fl2r](U)p.r(A)p.r(G)p.r(A)p.r(G)p.r(G)p.[fl2r](G)p.r(C)p.r(A)p.r(A)p.r(G)p.r(U)p.r(T)p.r(T)}|RNA2{r(A)p.r(C)p.r(U)p.[fl2r](U)p.r(G)p.r(C)p.r(C)p.r(C)p.r(U)p.r(C)p.[fl2r](U)p.r(A)p.r(G)p.r(G)p.r(G)p.r(G)p.r(U)p.r(U)p.r(U)p.r(T)p.r(T)}$$$RNA1{StrandType:ss}|RNA2{StrandType:as}$” displayed a target mRNA knockdown of 82%.
The value for “RNA1{r(A)p.r(A)p.r(A)p.r(C)p.r(C)p.r(C)p.r(C)p.[fl2r](U)p.r(A)p.r(G)p.r(A)p.r(G)p.r(G)p.r(G)p.[fl2r](C)p.r(A)p.r(A)p.r(G)p.r(U)p.r(T)p.r(T)}|RNA2{r(A)p.r(C)p.r(U)p.r(U)p.r(G)p.r(C)p.r(C)p.r(C)p.r(U)p.r(C)p.r(U)p.r(A)p.r(G)p.r(G)p.r(G)p.r(G)p.r(U)p.r(U)p.r(U)p.r(T)p.r(T)}$$$RNA1{StrandType:ss}|RNA2{StrandType:as}$” was 83%.
With “RNA1{r(A)p.r(A)p.r(A)p.r(C)p.r(C)p.r(C)p.r(C)p.m(U)p.r(A)p.r(G)p.r(A)p.r(G)p.r(G)p.r(G)p.m(C)p.r(A)p.r(A)p.r(G)p.r(U)p.r(T)p.r(T)}|RNA2{r(A)p.r(C)p.r(U)p.m(U)p.r(G)p.r(C)p.r(C)p.r(C)p.r(U)p.r(C)p.m(U)p.r(A)p.r(G)p.r(G)p.r(G)p.r(G)p.r(U)p.r(U)p.r(U)p.r(T)p.r(T)}$$$RNA1{StrandType:ss}|RNA2{StrandType:as}$”, the target mRNA knockdown came to 78%.
“RNA1{r(A)p.r(A)p.r(A)p.r(C)p.r(C)p.r(C)p.r(C)p.m(U)p.r(A)p.r(G)p.r(A)p.r(G)p.r(G)p.r(G)p.r(C)p.r(A)p.r(A)p.r(G)p.r(U)p.r(T)p.r(T)}|RNA2{r(A)p.r(C)p.r(U)p.r(U)p.r(G)p.r(C)p.r(C)p.r(C)p.r(U)p.r(C)p.m(U)p.r(A)p.r(G)p.r(G)p.r(G)p.r(G)p.r(U)p.r(U)p.r(U)p.r(T)p.r(T)}$$$RNA1{StrandType:ss}|RNA2{StrandType:as}$”: the target mRNA knockdown worked out at 75%.
The figure for “RNA1{r(A)p.r(A)p.r(A)p.r(C)p.r(C)p.r(C)p.r(C)p.r(U)p.r(A)p.r(G)p.r(A)p.r(G)p.r(G)p.r(G)p.r(C)p.r(A)p.r(A)p.r(G)p.r(U)p.r(T)p.r(T)}|RNA2{[fl2r](A)p.r(C)p.[fl2r](U)p.r(U)p.[fl2r](G)p.r(C)p.[fl2r](C)p.r(C)p.[fl2r](U)p.r(C)p.[fl2r](U)p.r(A)p.[fl2r](G)p.r(G)p.[fl2r](G)p.r(G)p.[fl2r](U)p.r(U)p.[fl2r](U)p.r(T)p.r(T)}$$$RNA1{StrandType:ss}|RNA2{StrandType:as}$” is 37%; for “RNA1{r(A)p.r(A)p.r(A)p.r(C)p.r(C)p.r(U)p.m(C)p.r(A)p.r(G)p.r(C)p.r(C)p.r(C)p.m(U)p.r(A)p.r(A)p.r(C)p.r(G)p.r(G)p.r(U)p.r(T)p.r(T)}|RNA2{r(A)p.r(C)p.r(C)p.r(G)p.r(U)p.m(U)p.r(A)p.r(G)p.r(G)p.r(G)p.r(C)p.m(U)p.r(G)p.r(A)p.r(G)p.r(G)p.r(U)p.r(U)p.r(U)p.r(T)p.r(T)}$$$RNA1{StrandType:ss}|RNA2{StrandType:as}$” it is 70%.
In turn, “RNA1{r(A)p.r(A)p.r(A)p.r(C)p.r(C)p.r(U)p.r(C)p.m(A)p.r(G)p.r(C)p.r(C)p.r(C)p.r(U)p.r(A)p.r(A)p.r(C)p.r(G)p.r(G)p.r(U)p.r(T)p.r(T)}|RNA2{r(A)p.r(C)p.r(C)p.r(G)p.r(U)p.m(U)p.r(A)p.r(G)p.r(G)p.r(G)p.r(C)p.r(U)p.r(G)p.r(A)p.r(G)p.r(G)p.r(U)p.r(U)p.r(U)p.r(T)p.r(T)}$$$RNA1{StrandType:ss}|RNA2{StrandType:as}$” returned a target mRNA knockdown of 70%.
Take “RNA1{r(A)p.r(A)p.r(A)p.r(C)p.r(C)p.r(U)p.r(C)p.r(A)p.r(G)p.r(C)p.r(C)p.r(C)p.m(U)p.m(A)p.r(A)p.r(C)p.r(G)p.r(G)p.r(U)p.r(T)p.r(T)}|RNA2{r(A)p.r(C)p.r(C)p.r(G)p.r(U)p.m(U)p.r(A)p.r(G)p.r(G)p.r(G)p.r(C)p.r(U)p.r(G)p.r(A)p.r(G)p.r(G)p.r(U)p.r(U)p.r(U)p.r(T)p.r(T)}$$$RNA1{StrandType:ss}|RNA2{StrandType:as}$”: the target mRNA knockdown was 69%.
The value for “RNA1{r(A)p.r(A)p.r(A)p.r(C)p.r(G)p.m(U)p.r(G)p.r(A)p.r(C)p.r(U)p.r(U)p.m(U)p.r(G)p.r(G)p.r(U)p.r(U)p.r(C)p.m(C)p.r(U)p.r(T)p.r(T)}|RNA2{r(A)p.r(G)p.r(G)p.r(A)p.r(A)p.r(C)p.m(C)p.r(A)p.r(A)p.r(A)p.r(G)p.r(U)p.m(C)p.r(A)p.r(C)p.r(G)p.r(U)p.r(U)p.r(U)p.r(T)p.r(T)}$$$RNA1{StrandType:ss}|RNA2{StrandType:as}$” was 82%.
